Here are results for twelve compounds from paper PMC12256496, “An advancement in developmental and reproductive toxicity (DART) risk assessment: evaluation of a bioactivity and exposure-based NAM toolbox” (Frontiers in Toxicology, 2025).

Values joined by “and” are separate entries in the source; they are usually repeats but may differ in a detail not shown here. Identical values can stand only once. Like-named read-outs stand apart in the source and are kept apart here. A value given as a limit tells only on which side of the number the result lay.

Series [1] in a line: Human in vivo PK data: concentration-dose ratio (CDR) and toxicokinetic variability factor (TKVF).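 Further: Literature-pooled human in vivo PK data, plasma, serum or cord blood concentrations per daily dose, weighted by study population size across non-pregnant, pregnant and fetal groups.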 Details: 95% percentile (Conc-dose-ratio): unit not given here.
Series [2] is described as follows: Bioactivity exposure ratio (BER): minimum platform PoD / estimated Cmax.
The nature of series [3]: skin absorption / systemic exposure dose for dermal exposure (PBK parameter). It counts as in vitro ADME. From the text: Where a SED (systemic exposure dose) was reported systemic exposure from a dermal administration was modelled as a slow intravenous infusion of the SED, which corrects the applied dose for the rate of skin absorption (%). Where no SED was available dermal exposure route was predicted by the dermal module in GastroPlus® administration.

For series [4], the system named is human developmental and reproductive toxicity. To be noted: cited from earlier work.
For series [5], the system named is developmental or reproductive toxicity in animal or human. The following applies: cited from earlier work.
For series [6] the following is noted: cited from earlier work.
The conditions of series [7]: cited from earlier work. This is another data set of the same source.
The subject of the next series is rats. The following applies: ref Supplementary Data Sheet 1, cited from earlier work.
Series [8] in a line: renal clearance, Fup*GFR (PBK parameter). To be noted: method Fup*GFR.
A short description of series [9]: hepatic intrinsic clearance, CLint (PBK parameter). Format: in vitro ADME.
The conditions of series [10]: ref Supplementary Data Sheet 1, cited from earlier work.
The test system of series [11] is human induced pluripotent stem cell (hiPSC). Nature of the series: devTOX quickPredict (ornithine/cystine ratio, cell viability). Format: cell-based. To be noted: at concentrations above the TDI. The procedure: devTOX quickPredict is a human induced pluripotent stem cell (hiPSC) -based assay that predicts the concentration at which a compound may elicit developmental toxicity. […] Assays were performed as described in [Palmer et al. (2013)] with modifications. Briefly undifferentiated hiPSCs are exposed to the compound for 48 h, with media and test article replacement every 24 h. Ornithine and […] concentrations were measured from the final 24-h treatment using Ultra-Performance Liquid Chromatography-High Resolution Mass Spectrometry (UPLC-HRMS). Cell viability was assessed after sample collection using the CellTiter-Fluor Cell Viability Assay (Promega). Dose-response analysis for the o/c ratio, cell viability, ornithine response and cystine response were performed with GraphPad Prism (version 9.1 or newer, GraphPad Software). Each data set was fit with a nonlinear model. The standard model used for analysis is a four-parameter log-logistic nonlinear model. However, the Akaike information criterion (GraphPad Prism) was used to determine if an asymmetric (five-parameter) or multiphasic nonlinear model was a better fit for the data than the four-parameter model. The developmental toxicity potential (dTP, o/c ratio) and toxicity potential (TP, cell viability) concentrations were predicted from the respective dose-response curves using the hiPSCs cell developmental toxicity threshold (dTT, 0.85).

The conditions of series [12]: human.
Another series relates to humans. To be noted: ref Supplementary Data Sheet 1, cited from earlier work.
The mark [13] stands for this setting: low-risk exposure scenario of the compound.
Where [14] appears, read: evidence of developmental or reproductive toxicity in animal or human, irrespective of exposure/dose, ref Supplementary Data Sheet 1.
Setting [15] is: two multigeneration rat studies.
The mark [16] stands for this setting: Foetus, oral, combined (retinyl palmitate, dietary retinoids).
Setting [17] is: Non-Pregnant, oral, combined (retinyl palmitate, dietary retinoids).
Setting [18] is: Pregnant, oral, combined (retinyl palmitate, dietary retinoids).

On to `C[C@H]1O[C@@H](O[C@H]2[C@@H](O)C[C@H](O[C@H]3[C@@H](O)C[C@H](O[C@H]4CC[C@@]5(C)[C@H](CC[C@@H]6[C@@H]5C[C@@H](O)[C@]5(C)[C@@H](C7=CC(=O)OC7)CC[C@]65O)C4)O[C@@H]3C)O[C@@H]2C)C[C@H](O)[C@@H]1O` [Digoxin], for which the TKVF was determined as 2.35 in series [1] (female, human, in vivo) and 2.35 in [1] (female, human, in vivo, po). Further, the BER in [2] (setting [13]) is below 1.

Consider `O=CCCCC=O` [Glutaraldehyde], for which, in series [3] (optimised based on [10]), the “Diffusivity Dermis” value came to 1.00E-07 cm^2/s, the “Diffusivity Stratum Corneum” value is 1.00E-09 cm^2/s, the “Diffusivity Viable Epidermis” value came out at 5.00E-08 cm^2/s and the “Partition Coefficient Stratum Corneum/Water” value is 2.30. In addition, the “Partition Coefficient Viable Epidermis/Water” value in series [3] (optimised based on [10]) was found to be 3.00. Moreover, the “Exposure risk (DART risk classification)” value in [4] (Cosmetic, 0.1% in body lotion, dermal, ref Supplementary Data Sheet 1) is listed as “Low Risk”. For the same compound, the “DART Hazard Call” value in series [5] (setting [14]) was “Non Toxic”. Moreover, the “Aqueous Solubility” value in series [6] (Solubility pH 7, ref [7]) is 167.2 mg/mL. Moreover, the “Chronic Dietary RfD” value in [7] (ref EPA) is reported as “Chronic Dietary RfD set by EPA (0.16 mg/kg/day)”. For the same compound, the “highest dose tested without evidence of developmental toxicity” value in the series with rats (two developmental toxicity studies in the rat) is 50 mg/kg/day and 68 mg/kg/day. In addition, the “Renal Clearance” value in series [8] is recorded as 6.185 L/h.

Take `Nc1ccc(NCCO)c([N+](=O)[O-])c1` [HC Red 3]: the “Intrinsic Liver Clearance” value in series [9] was determined as 248.1 L/h. For the same compound, in series [3] (optimised based on [11]), the “Diffusivity Dermis” value amounted to 1.00E-08 cm^2/s, the “Diffusivity Stratum Corneum” value stood at 1.00E-08 cm^2/s, the “Diffusivity Vehicle” value turned out to be 1.00E-05 cm^2/s and the “Diffusivity Viable Epidermis” value is recorded as 1.00E-10 cm^2/s. For the same compound, the “Partition Coefficient Stratum Corneum/Water” value in [3] (optimised based on [11]) was 1.50. Also, in [4], the “Exposure risk (DART risk classification)” value is reported as “Low Risk”. Besides, the “DART Hazard Call” value in series [5] is on record as “Non Toxic”. For the same compound, the “NOAEL for maternal toxicity” value in series [10] is 200 mg/kg/day. Besides, the “Renal Clearance” value in series [8] is reported as 4.496 L/h.

Take `CC(C)(CO)C(O)C(=O)NCCCO` (stereo not shown) [Panthenol]: in series [3] (optimised based on [12]), the “Diffusivity Stratum Corneum” value came out at 2.29E-13 cm^2/s and the “Partition Coefficient Stratum Corneum/Water” value is listed as 1.96. Also, in [8], the “Renal Clearance” value is recorded as 6.348 L/h. Moreover, the BER in series [2] (setting [13]) is below 1.

Consider `CCCCOC(=O)c1ccccc1C(=O)OCCCC` [Dibutyl phthalate (DBP), Dibutyl phthalate], for which, in [11], the “response in devTox quickPredict” value is recorded as “positive response”. In addition, the “DART Hazard Call” value in series [5] is on record as “Toxic”.

As for `CCOc1cc(CCC(C)=O)ccc1O` [Ethylzingerone], the “Renal Clearance” value in series [12] is on record as 2.012 L/h. For the same compound, the “Exposure risk (DART risk classification)” value in series [4] was “Low Risk”. For the same compound, in series [5], the “DART Hazard Call” value was “Non Toxic”. The “Aqueous Solubility” value in [6] (pH 6.25) is 7.59 mg/mL.

With `CC1(C)C(C=C(Cl)Cl)C1C(=O)OC(C#N)c1cccc(Oc2ccccc2)c1` (stereo not shown) [Cypermethrin], in the series on rats (15-day intact adult male rat assay, decreased body weight gain), the NOAEL is 6 mg/kg bw per day. In the series on rats (two multigeneration rat studies, decreased survival of pups at birth), the “reproductive NOAEL” value is 10 mg/kg bw per day. In the series with rats (setting [15]), the “offspring NOAEL” value is listed as 10 mg/kg bw per day and the “parental NOAEL” value was 10 mg/kg bw per day. In addition, the “developmental NOAEL” value in series [10] (DNT study) is 15 mg/kg bw per day.

For the compound `CC(C)(C)c1ccc(CCOc2ncnc3ccccc23)cc1` [Fenazaquin], the “Renal Clearance” value in series [12] was determined as 0.577 L/h. Also, the “Exposure risk (DART risk classification)” value in [4] (Dietary, 3 mg/daily, oral, ref Supplementary Data Sheet 1) is “Low Risk”. Besides, in series [5] (setting [14]), the “DART Hazard Call” value is reported as “Non Toxic”. Further, the “Aqueous Solubility” value in series [6] (Solubility pH 7.01, median, ref [7],[8]) was 0.00019 mg/mL. For the same compound, the ADI entry in series [7] (ref FSCJ, EFSA, SCF, JMPR as named in the cell) is given as “ADI set by JMPR (0.05 mg/kg/day)”. In addition, the “NOAEL on which the ADI is based” value in series [10] (parental/systemic toxicity, not reproductive effects) is “No evidence of developmental or reproductive toxicity. ADI is based on the NOAEL from this study of 5 mg/kg/day but this was based on parental/systemic toxicity and not reproductive effects”. Also, in [2] (setting [13]), the BER was below 1.

For `CCOP(=S)(OCC)Oc1nc(Cl)c(Cl)cc1Cl` [Chlorpyrifos], the “Mean Conc-dose -ratio” value in series [1] (Non-Pregnant, oral) is given as 0.002 uM/(mg/day]. In addition, the “DART Hazard Call” value in series [5] is “Toxic”. Also, the “level of the high exposure group associated with developmental neurotoxicity” value in the series with humans (prenatal exposure, cord blood biomonitoring) is “The high exposure CPF group (≥4.39 pg/g) was associated with developmental neurotoxicity”.

On to `CCCCOC(=O)c1ccccc1C(=O)OCCCC` [Dibutyl phthalate], for which, in series [9], the “Intrinsic Liver Clearance” value was 1887.4 L/h. Besides, the “Renal Clearance” value in [12] came out at 0.2 L/h.

Consider `O=C1CCC(N2C(=O)c3ccccc3C2=O)C(=O)N1` (stereo not shown) [Thalidomide], for which, in [1] (human, in vivo, po), the “95% percentile (Conc-dose-ratio)” value came to 0.06, the “Mean Conc-dose -ratio” value is reported as 0.036 uM/(mg/day] and the TKVF amounted to 1.73. Moreover, in series [4] (Pharmaceutical, 50 mg/daily, oral, ref Supplementary Data Sheet 1), the “Exposure risk (DART risk classification)” value is recorded as “High Risk”. Besides, the “DART Hazard Call” value in series [5] (setting [14]) is recorded as “Toxic”. Moreover, in the series with humans (infants), the “mortality at or shortly after birth” value is “Thalidomide is a powerful human teratogen, inducing a high frequency of severe and life-threatening birth defects, even after a single dose. Mortality at or shortly after birth has been reported in about 40% of infants”.

As to `CC1=C(/C=C/C(C)=C/C=C/C(C)=C/CO)C(C)(C)CCC1` [Retinol], the figures for the “CDR fold difference to non-pregnant” value in series [1] (Fetus population), in series [1] (Non-Pregnant population (reference)) and in series [1] (Pregnant population) were 0.82, 1.00 and 0.88, respectively. For the same compound, the TKVF is on record as 1.86 in [1] (Fetus population, TKVF95 = p95 / weighted mean concentration-dose ratio); 1.86 in series [1] (setting [16]); 2.32 in [1] (Non-Pregnant population, TKVF95 = p95 / weighted mean concentration-dose ratio); 2.32 in [1] (setting [17]); 1.64 in series [1] (Pregnant population, TKVF95 = p95 / weighted mean concentration-dose ratio); 1.64 in [1] (setting [18]). Moreover, the entries for the “95% percentile (Conc-dose-ratio)” value in series [1] (setting [16]), in series [1] (setting [17]) and in series [1] (setting [18]) were 2.85, 4.34 and 2.70, respectively. Further, the “Fold Difference to non-pregnant” value in series [1] (setting [16]) is 0.82; in [1] (setting [17]), 1.00; in [1] (setting [18]) it was 0.88. The “Fold Difference to pregnant” value was 0.93 in series [1] (setting [16]) and 1.00 in series [1] (setting [18]). Besides, the “Mean Conc-dose -ratio” value is given as 1.54 uM/(mg/day] in series [1] (setting [16]), 1.87 uM/(mg/day] in series [1] (setting [17]) and 1.65 uM/(mg/day] in [1] (setting [18]). The “Exposure risk (DART risk classification)” value is recorded as “Low Risk” in series [4] (Cosmetic, 0.05% in body lotion, dermal, ref Supplementary Data Sheet 1) and “Low Risk” in series [4] (Dietary, <10,000 IU, oral, ref Supplementary Data Sheet 1). Besides, the “DART Hazard Call” value in series [5] (setting [14]) is reported as “Toxic”. Moreover, the “exposure above which DART effects are seen in vivo” value in the series with humans is recorded as “above 3,000 μg RE/day”. In addition, the BER in series [2] (low-risk scenario of normal dietary exposure to retinol and its metabolite) was below 1.

As a reminder, the Aqueous Solubility is the concentration that dissolves in the medium under given conditions. What is called NOAEL is the highest dose or exposure tested at which no adverse effect was seen.
